The target of this assay is full-length human recombinant active AKT-1 (Homo sapiens, UniProt P31749). The experiment in a line: AKT-1 Kinase Assay (IMAP fluorescence polarization). The following applies: phosphorylation of fluorescein-labeled Crosstide peptide by AKT-1, 60 minute incubation at ambient temperature. The class given is biochemical. The text has this: The activity of the compound described in the present invention may be determined by the following kinase assay, which measures the phosphorylation of a fluorescently-labeled peptide by full-length human recombinant active AKT-1 by fluorescent polarization using a commercially available IMAP kit.
The assay materials are obtained from an IMAP AKT Assay Bulk Kit, product #R8059, from Molecular Devices, Sunnyvale, Calif. The kit materials include an IMAP Reaction Buffer (5×). The diluted 1×IMAP Reaction Buffer contained 10 mM Tris-HCl, pH 7.2, 10 mM MgCl2, 0.1% BSA, 0.05% NaN3. DTT is routinely added to a final concentration of 1 mM immediately prior to use. Also included is IMAP Binding Buffer (5×), and IMAP Binding Reagent. The Binding Solution is prepared as a 1:400 dilution of IMAP Binding Reagent into 1×IMAP Binding Buffer.
The fluorescein-labeled AKT Substrate (Crosstide) has the sequence (Fl)-GRPRTSSFAEG. A stock solution of 20 μM is made up in 1×IMAP Reaction Buffer. […]
The assay is initiated by the addition of 2.5-μL aliquots of a solution containing 200 nM of fluorescently-labeled peptide substrate and 4 nM AKT-1. […] The reaction is then quenched by the addition of 15 μL of Binding Solution, centrifuged again and incubated for an additional 30 minutes at ambient temperature prior to reading on a Victor 1420 Multilabel HTS Counter configured to measure fluorescence polarization.

Where only a bound is given, the exact number is not on record here.

As a reminder, the IC50 is the concentration needed to halve the response being measured.

full-length human recombinant active AKT-1, sequence (P31749 whole entry): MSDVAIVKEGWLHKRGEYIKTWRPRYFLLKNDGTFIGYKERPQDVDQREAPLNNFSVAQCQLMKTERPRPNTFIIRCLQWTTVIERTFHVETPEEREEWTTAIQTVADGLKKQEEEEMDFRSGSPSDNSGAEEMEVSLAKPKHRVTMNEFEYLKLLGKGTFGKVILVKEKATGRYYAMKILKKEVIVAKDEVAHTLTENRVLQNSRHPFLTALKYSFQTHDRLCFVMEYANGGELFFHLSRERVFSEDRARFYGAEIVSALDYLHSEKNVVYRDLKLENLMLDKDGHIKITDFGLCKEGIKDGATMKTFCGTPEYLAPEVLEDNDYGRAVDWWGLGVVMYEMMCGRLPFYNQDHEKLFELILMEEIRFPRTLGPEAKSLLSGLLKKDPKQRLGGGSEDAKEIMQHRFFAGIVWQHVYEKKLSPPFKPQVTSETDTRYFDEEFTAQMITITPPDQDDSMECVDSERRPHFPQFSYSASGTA

On to `CO[C@H]1CC[C@H](NC[C@@H](C(=O)N2CCN(c3ncnc4c3[C@H](C)C[C@H]4O)CC2)c2ccc(Cl)c(F)c2)CC1` [Example 1, (S)-2-(4-chloro-3-fluorophenyl)-1-(4-((5R,7R)-7-hydroxy-5-methyl-6,7-dihydro-5H-cyclopenta[d]pyrimidin-4-yl)piperazin-1-yl)-3-((1r,4S)-4-methoxycyclohexylamino)propan-1-one], for which the IC50 is less than 500 nM.
